Experiment [1] deals with T1, Mineralcorticoidal receptor of kidneys of the rat (Rattus norvegicus, UniProt P22199).
T1 construct: from tissue; host or cells: rat kidney, 105,000 g supernatant (adrenalectomized male Sprague-Dawley rats)
T1 sequence (P22199 1-981): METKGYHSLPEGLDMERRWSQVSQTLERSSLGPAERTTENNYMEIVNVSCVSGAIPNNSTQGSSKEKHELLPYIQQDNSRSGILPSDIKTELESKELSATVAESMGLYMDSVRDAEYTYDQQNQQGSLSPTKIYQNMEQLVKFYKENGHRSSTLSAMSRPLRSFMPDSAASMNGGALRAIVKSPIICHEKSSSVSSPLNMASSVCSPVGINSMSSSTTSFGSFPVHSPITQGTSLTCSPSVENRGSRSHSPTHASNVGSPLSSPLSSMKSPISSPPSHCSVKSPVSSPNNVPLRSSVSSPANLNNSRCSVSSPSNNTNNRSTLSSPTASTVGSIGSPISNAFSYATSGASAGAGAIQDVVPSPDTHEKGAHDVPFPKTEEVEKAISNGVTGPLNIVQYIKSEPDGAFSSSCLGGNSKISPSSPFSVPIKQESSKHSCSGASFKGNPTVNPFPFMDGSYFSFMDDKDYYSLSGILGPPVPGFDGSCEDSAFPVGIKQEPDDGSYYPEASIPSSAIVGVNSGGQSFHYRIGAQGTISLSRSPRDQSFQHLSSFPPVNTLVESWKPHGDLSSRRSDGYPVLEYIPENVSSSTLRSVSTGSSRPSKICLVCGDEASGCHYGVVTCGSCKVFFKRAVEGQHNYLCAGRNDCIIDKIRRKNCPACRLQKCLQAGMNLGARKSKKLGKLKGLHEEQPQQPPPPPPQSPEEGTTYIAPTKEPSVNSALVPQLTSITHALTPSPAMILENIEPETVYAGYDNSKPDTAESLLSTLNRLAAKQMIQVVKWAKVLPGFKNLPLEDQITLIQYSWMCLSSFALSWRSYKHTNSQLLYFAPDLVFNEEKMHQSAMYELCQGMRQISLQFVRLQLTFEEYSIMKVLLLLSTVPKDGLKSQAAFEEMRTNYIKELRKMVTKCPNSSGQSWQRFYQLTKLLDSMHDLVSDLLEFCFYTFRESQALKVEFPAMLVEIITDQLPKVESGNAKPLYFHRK
Description: Mineralcorticoidal receptor binding (displacement of tritiated aldosterone). The following applies: second table; incubation 24 H at 0° C. The protocol: A. Mineralcorticoidal receptor of kidneys of the rat
Male Sprague-Dawley EOPS rats weighing 140 to 160 g surrenalectomized 4 to 8 days previously were killed and their kidneys were perfused in situ with 50 ml of a buffer (10 mM of Tris 0.25M of Saccharose and sufficient hydrochloric acid for a pH of 7.4). The kidneys were then removed, decapsulated and homogenized at 0° C. with a polytetrafluoroethylene-glass Potter (1 g of tissue per 3 ml of buffer). The homogenate was centrifuged for 10 minutes at 800 g at 9° C.
After elimination of the fixation of tritiated aldosterone with glucocorticoid receptor, 21-methyl-Δ^1,4,6 -pregnatriene-20-yne-11β,17β-diol-3-one fixed only with the glucocorticoid receptor was added to the supernatant at a final concentration of 10^-6 M. The suprenatant was ultracentrifuged at 105,000 g for 60 minutes and 0° C. and aliquoits of the resulting surnageant were incubated at 0° C. with a constant concentration (T) of tritiated aldosterone in the presence of increasing concentrations (0-2500×10^-9 M) of cold aldosterone or the cold test product. After a time (t) of incubation, the concentration of tied tritiated aldosterone (B) was measured by the technique of adsoprtion on carbon dextran.
(§1) The calculation of the relative affinity of […] (ARL) was identical for all of the above receptor tests. One traced the following two curves: the percentage of tied tritiated hormone B/T as a function of the logarithm of the cold hormone concentration and B/T as a function of the logarithm of the concentration of the cold test product. One determined the line of the equation. [formula]
(§2) The intersection of the I50 line and the curves permits one to determine the concentrations of the cold hormone of the reference (CH) and the cold test compound (CX) which inhibit by 50% the tieing of tritiated hormone with the receptor. The relative affinity of tieing (ARL) of the test product was determined by the equation: [formula]

Experiment [2] has as its target T2, Progestogen receptor of the uterus of rabbits (Oryctolagus cuniculus, UniProt P06186).
T2 construct: The uterus was removed, weighed and homogenized at 0° C; from tissue; host or cells: rabbit uterus, 105,000 g supernatant (estradiol-primed immature rabbits)
T2 sequence (P06186 1-930): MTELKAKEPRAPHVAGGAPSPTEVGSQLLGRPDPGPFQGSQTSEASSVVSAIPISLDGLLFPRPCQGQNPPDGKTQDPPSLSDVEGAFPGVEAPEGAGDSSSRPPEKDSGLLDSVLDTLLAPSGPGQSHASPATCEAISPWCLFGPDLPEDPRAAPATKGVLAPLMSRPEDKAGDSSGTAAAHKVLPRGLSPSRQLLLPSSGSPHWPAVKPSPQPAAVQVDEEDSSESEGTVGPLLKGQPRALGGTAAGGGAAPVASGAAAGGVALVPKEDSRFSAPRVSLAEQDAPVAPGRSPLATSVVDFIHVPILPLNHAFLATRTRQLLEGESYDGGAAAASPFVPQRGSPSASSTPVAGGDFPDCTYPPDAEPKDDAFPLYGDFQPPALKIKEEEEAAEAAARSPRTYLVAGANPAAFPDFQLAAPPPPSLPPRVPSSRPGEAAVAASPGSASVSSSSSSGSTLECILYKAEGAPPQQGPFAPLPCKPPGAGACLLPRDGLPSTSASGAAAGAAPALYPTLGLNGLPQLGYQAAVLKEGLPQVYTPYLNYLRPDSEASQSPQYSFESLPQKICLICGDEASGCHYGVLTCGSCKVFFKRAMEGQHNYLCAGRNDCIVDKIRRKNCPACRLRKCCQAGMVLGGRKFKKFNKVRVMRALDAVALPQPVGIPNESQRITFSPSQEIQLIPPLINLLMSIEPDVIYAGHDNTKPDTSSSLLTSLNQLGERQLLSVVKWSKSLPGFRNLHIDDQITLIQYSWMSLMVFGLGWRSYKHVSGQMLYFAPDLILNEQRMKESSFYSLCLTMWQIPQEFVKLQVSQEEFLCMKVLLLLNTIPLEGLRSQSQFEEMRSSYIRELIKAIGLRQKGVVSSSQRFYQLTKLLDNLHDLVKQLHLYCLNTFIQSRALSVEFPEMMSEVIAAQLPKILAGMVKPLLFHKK
Description: Progestogen receptor binding (displacement of tritiated product R). The arrangement: species or system rabbit. The following applies: for relative affinity of tieing (ARL), Progestogen: second table; for affinity for progestogen receptors (in words): conclusion. Here is the method:
C. Progestogen receptor of the uterus of rabbits
Immature rabbits weighing about 1 kg received a cutaneous application of 25 μg of estradiol and the animals were killed 5 days later. The uterus was removed, weighed and homogenized at 0° C. with a polytetrafluoroethylene-glass Potter, in a buffered TS solution [Tris 10. mM, 0.25M of saccharose, HCl-pH of 7.4] with 1 g of tissue per 50 ml of TS. […] The concentration of tied tritiated R (B) was then measured for each incubate by the technique of adsoprtion on carbon-dextran.
as §1, §2

SMILES strings stand for the structures.

For `C=C(C)C#C[C@]1(O)CC[C@H]2[C@@H]3CCC4=CC(=O)CCC4=C3[C@@H](c3ccc(N(C)C)cc3)C[C@@]21C` [Example 23, 11β-[4-(N,N-dimethylamino)-phenyl]-23-methyl-19,21-dinor-17α-Δ^4,9,23-cholatriene-20-yn-17β-ol-3-one], the “relative affinity of tieing (ARL), Mineralocorticoid” value in experiment [1] amounted to 0. The “relative affinity of tieing (ARL), Progestogen” value (from here on “relative affinity … Progestogen”) in experiment [2] (incubation 2 H at 0° C.) is reported as 81; in experiment [2] (incubation 24 H at 0° C.), 268.

Regarding `CN(C)c1ccc([C@H]2C[C@@]3(C)[C@@H](CC[C@@]3(O)C#CCl)[C@@H]3CCC4=CC(=O)CCC4=C32)cc1` [Example 25, 11β-[4-(N,N-dimethylamino)-phenyl]-21-chloro-19-nor-17α-Δ^4,9-pregnadiene-20-yne-17β-ol-3-one], in experiment [1], the “relative affinity of tieing (ARL), Mineralocorticoid” value is 0. Further, the “affinity for progestogen receptors (in words)” value (from here on “affinity … (in words)”) in experiment [2] is “very remarkable affinity”. Also, the “relative affinity … Progestogen” value is recorded as 78 in experiment [2] (incubation 2 H at 0° C.) and 467 in experiment [2] (incubation 24 H at 0° C.).

As to `C[C@]12C[C@H](c3ccc([N+](C)(C)[O-])cc3)C3=C4CCC(=O)C=C4CC[C@H]3[C@@H]1CC[C@@]2(O)C#CCl` [Example 26, N-oxide of 11β-[4-(N,N-dimethylamino)-phenyl]-21-chloro-19-nor-17α-Δ^4,9-pregnadiene-20-yne-17β-ol-3-one], the “relative affinity of tieing (ARL), Mineralocorticoid” value in experiment [1] was 0. Further, the “relative affinity … Progestogen” value in experiment [2] (incubation 2 H at 0° C.) is 6,3; in experiment [2] (incubation 24 H at 0° C.) it was 8,3.

For the compound `C[C@]12C[C@H](c3ccc([N+](C)(C)[O-])cc3)[C@]34O[C@]35CCC(=O)C=C5CC[C@H]4[C@@H]1CC[C@@]2(O)C#CCl` [Example 27, N-oxide of 11β-[4-(N,N-dimethylamino)-phenyl]-9α,10α-epoxy-21-chloro-19-nor-17α-Δ^4-pregnene-20-yne-17β-ol-3-one], in experiment [1], the “relative affinity of tieing (ARL), Mineralocorticoid” value came out at 0. For the same compound, the “relative affinity … Progestogen” value in experiment [2] (incubation 2 H at 0° C.) is 0,6; in experiment [2] (incubation 24 H at 0° C.), 0,4.

Take `C#C[C@]1(O)CC[C@H]2[C@@H]3CCC4=CC(=O)CCC4=C3[C@@H](c3ccc(N(C)C)cc3)C[C@@]21C` [Example 32, 11β-[4-(N,N-dimethylamino)-phenyl]-17α-ethynyl-Δ^4,9-estradiene-17β-ol-3-one]: in experiment [1], the “relative affinity of tieing (ARL), Mineralocorticoid” value stood at 0. In experiment [2], the “affinity … (in words)” value was “very remarkable affinity”. The “relative affinity … Progestogen” value in experiment [2] (incubation 2 H at 0° C.) was 81; in experiment [2] (incubation 24 H at 0° C.), 351.

For the compound `C=CC[C@]1(O)CC[C@H]2[C@@H]3CCC4=CC(=O)CCC4=C3[C@@H](c3ccc(N(C)C)cc3)C[C@@]21C` [Example 37, 11β-[4-(N,N-dimethylamino)-phenyl]-17α-(prop-2-enyl)-Δ^4,9-estradien-17β-ol-3-one], the “relative affinity of tieing (ARL), Mineralocorticoid” value in experiment [1] is listed as 0,3. The “affinity … (in words)” value in experiment [2] was “very remarkable affinity”. In addition, the “relative affinity … Progestogen” value in experiment [2] (incubation 2 H at 0° C.) is given as 175; in experiment [2] (incubation 24 H at 0° C.), 843.

For `CN(C)c1ccc([C@H]2C[C@@]3(C)[C@@H](CC[C@@]3(O)C#C[Si](C)(C)C)[C@@H]3CCC4=CC(=O)CCC4=C32)cc1` [Example 44, 11β-[4-(N,N-dimethylamino)-phenyl]-21-trimethylsilyl-19-nor-17α-Δ^4,9-pregnadiene-20-yne-17β-ol-3-one], in experiment [1], the “relative affinity of tieing (ARL), Mineralocorticoid” value turned out to be 0. Besides, the “relative affinity … Progestogen” value is reported as 15,2 in experiment [2] (incubation 2 H at 0° C.) and 38 in experiment [2] (incubation 24 H at 0° C.).

These data come from patent US5043332A, “Novel 11β-substituted -19-nor-steriods” (priority 1981, dated 1991).
